Laboratory results: US20240148747A1, “SMALL MOLECULE ACTIVATORS OF YAP TRANSCRIPTIONAL ACTIVITY FOR REGENERATIVE ORGAN REPAIR” (THE SCRIPPS RESEARCH INSTITUTE, priority 2021, published 2024)
pEC50, pIC50: −log10 of the molar value.

Experiments:
[1] = Cytotoxicity in the TEAD-LUC activation assay; conditions: human
YAP = experiment: TEAD-LUC activation assay (293A-TEAD-LUC reporter); assay type: cell-based; conditions: Homo sapiens, Table 4; read-out: TEAD-LUC activation assay EC50
Excerpt: More specifically, we used a 293A cell line harboring a stably integrated cassette containing 8 copies of the TEAD binding element upstream of luciferase (8xGTII-LUC). These cells retain responsiveness to contact inhibition-induced decreases in YAP transcriptional output.^6 The TEAD-responsive reporter assay (called 293A-TEAD-LUC throughout) was adapted to 1536-well format and then used to screen a library of ˜738k compounds for YAP-inducing activity.
Additional compounds of the present disclosure were subjected to the assay described above.

Structure (SMILES) | pEC50 (YAP) | pIC50 [1]
O=C(NCCCN1CCOCC1)c1cc(-c2ccc(Cl)c(Cl)c2)on1 [Compound 120] | < 4.70 | < 4.70
CC(=O)Nc1cccc(NC(=O)c2cc(-c3ccccc3)on2)c1 [Compound 123] | < 4.70 | < 4.70
CCN1C(=O)NC(=O)C12CCN(C(=O)c1cc(-c3ccccc3)on1)CC2 [Compound 125] | < 4.70 | < 4.70
CN(C)CCN(C(=O)c1cc(-c2ccccc2)on1)c1ccccc1 [Compound 126] | < 4.70 | < 4.70
CN1CCN(CCCNC(=O)c2cc(-c3ccccc3)on2)CC1 [Compound 127, N-[3-(4-methylpiperazin-1-yl)propyl]-5-phenyl-1,2-oxazole-3-carboxamide] | 5.57 | < 4.70
Cc1ccc(C(=O)NC2CCN(C(=O)c3cc(-c4ccccc4)on3)CC2)o1 [Compound 132] | < 4.70 | < 4.70
NC(=O)CCN(Cc1ccccc1)C(=O)c1cc(-c2ccccc2)on1 [Compound 133] | < 4.70 | < 4.70
O=C(NCCCN1CCOCC1)c1cc(-c2ccc(F)cc2)on1 [Compound 135] | < 4.70 | < 4.70
O=C(NCCN1CCOCC1)c1cc(-c2ccc(F)cc2)on1 [Compound 136] | 5.26 | < 4.70
O=C(c1cc(-c2ccccc2)on1)N1CCC(Nc2ncccn2)CC1 [Compound 137] | < 4.70 | < 4.70
O=C(c1cc(-c2ccccc2)on1)N1CCC(c2nc3ccccc3s2)CC1 [Compound 138] | < 4.70 | < 4.70
CC(=O)N1CCCN(C(=O)c2cc(-c3ccccc3)on2)CC1 [Compound 139] | < 4.70 | < 4.70
O=C(NCCCN1CCCCCC1=O)c1cc(-c2ccccc2)on1 [Compound 141] | 5.40 | < 4.70
Cc1nc(CCCNC(=O)c2cc(-c3ccccc3)on2)sc1C [Compound 142] | 5.33 | < 4.70
O=C(Nc1ccccc1-n1cncn1)c1cc(-c2ccccc2)on1 [Compound 143] | < 4.70 | < 4.70
O=C(Nc1cccc(N2CCOC2=O)c1)c1cc(-c2ccccc2)on1 [Compound 144] | 5.00 | < 4.70
CN1C(=O)CCc2cc(NC(=O)c3ccncc3)ccc21 [Compound 146] | 4.82 | < 4.70
CN1C(=O)CCc2cc(NC(=O)c3n[nH]c4ccccc34)ccc21 [Compound 147] | 5.60 | < 4.70
O=C(NCCc1ccccc1)c1n[nH]c2ccccc12 [Compound 148] | < 4.70 | < 4.70
O=C(NC1CCCc2ccccc21)c1cc(-c2ccccc2)n[nH]1 (centres unmarked) [Compound 151] | 5.00 | < 4.70
N#Cc1cccc(NC(=O)c2cc(-c3ccncc3)[nH]n2)c1 [Compound 154] | 5.70 | < 4.70
CCc1cccc(NC(=O)C2CCN(C(=O)c3cc(-c4ccncc4)[nH]n3)CC2)c1 [Compound 155] | 5.30 | < 4.70
Cc1ccc(N2CC(C(=O)NCc3n[nH]c4ccccc34)CC2=O)cc1 (centres unmarked) [Compound 156] | 5.30 | < 4.70
COc1ccc2cc(NC(=O)c3n[nH]c4c3CCCCC4)cnc2c1 [Compound 157] | 5.00 | < 4.70

Now from value to molecule, other results behind:

pEC50 (YAP) | Structure (SMILES) | pIC50 [1]
< 4.70 | Cc1ccc(-c2cc(C(=O)NCCC(=O)N(C)Cc3ccccc3)no2)cc1 [Compound 119] | < 4.70
5.26 | O=C(NCCN1CCOCC1)c1cc(-c2ccccc2)on1 [Compound 122] | < 4.70
5.17 | CC1CN(C(=O)CCNC(=O)c2cc(-c3ccccc3)on2)CC(C)O1 (centres unmarked) [Compound 124] | < 4.70
5.22 | CN1CCN(CCNC(=O)c2cc(-c3ccccc3)on2)CC1 [Compound 128] | < 4.70
< 4.70 | COc1ccc(OC)c(-c2cc(C(=O)NCCc3nc(C)cs3)no2)c1 [Compound 130] | < 4.70
5.54 | Cc1ccc(NCCCNC(=O)c2cc(-c3ccccc3)on2)nc1 [Compound 131] | < 4.70
< 4.70 | O=C(NCCCN1CCOCC1)c1cc(-c2ccc(Cl)cc2)on1 [Compound 134] | < 4.70
< 4.70 | O=C(c1cc(-c2ccccc2)on1)N1CCCN(c2cccnn2)CC1 [Compound 140] | < 4.70
5.70 | CCN1C(=O)CCc2cc(NC(=O)c3n[nH]c4ccccc34)ccc21 [Compound 145] | < 4.70
5.52 | CCCN1C(=O)CCc2cc(NC(=O)c3ccn(CC)n3)ccc21 [Compound 149] | < 4.70
5.00 | Cc1cccc(C)c1NC(=O)c1n[nH]c(=O)c2ccccc12 [Compound 150] | < 4.70
5.00 | CCN1C(=O)CCc2cc(NC(=O)c3cccc(Br)c3)ccc21 [Compound 152] | < 4.70
< 4.70 | CC(=O)c1ccc(NC(=O)c2cc(-c3ccncc3)[nH]n2)cc1 [Compound 153] | < 4.70
